Measurements as given in PubChem BioAssay AID248 (DTP/NCI, 2004).
Several values for one entry are separate records, joined by “and”; a condition that tells them apart may be missing. Equal values may be shown once. Toxic doses and inconclusive results are not listed. Cut-off read from the data, not from the text of the source: active = T/C of 150% or more; inactive = T/C below 125%. Square brackets hold non-standard residues; d marks the D form. Peptide text beside a SMILES is read from it. ξ: configuration not given here. ξV = CC(C)C(N)C(=O)O

System: L1210 leukemia ip in BDF1 mice, survival T/C
Assay: NCI In Vivo Anticancer Drug Screen. Data for tumor model L1210 Leukemia (intraperitoneal) in B6D2F1 (BDF1) mice
Conditions: endpoint: mean survival time, higher = longer survival
How it was run: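 Transplantable tumor model; survival measured in treated vs vehicle control mice. Value = treated/control.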

[1] = dose: 100.0 mg/kg/injection, schedule: Q01DX009 (ip), vehicle: saline
[2] = dose: 200.0 mg/kg/injection, schedule: Q01DX009 (ip), vehicle: saline
[3] = dose: 400.0 mg/kg/injection, schedule: Q01DX009 (ip), vehicle: saline
[4] = dose: 50.0 mg/kg/injection, schedule: Q01DX009 (ip), vehicle: saline with Tween-80
[5] = dose: 100.0 mg/kg/injection, schedule: Q01DX001 (ip), vehicle: saline with Tween-80
[6] = dose: 100.0 mg/kg/injection, schedule: Q01DX009 (ip), vehicle: saline with Tween-80
[7] = dose: 100.0 mg/kg/injection, schedule: Q04DX002 (ip), vehicle: saline with Tween-80
[8] = dose: 200.0 mg/kg/injection, schedule: Q04DX002 (ip), vehicle: saline with Tween-80
[9] = dose: 100.0 mg/kg/injection, schedule: Q01DX001 (ip), vehicle: carboxymethylcellulose (CMC)
[10] = dose: 200.0 mg/kg/injection, schedule: Q01DX001 (ip), vehicle: carboxymethylcellulose (CMC)
[11] = dose: 400.0 mg/kg/injection, schedule: Q01DX001 (ip), vehicle: carboxymethylcellulose (CMC)
[12] = dose: 100.0 mg/kg/injection, schedule: Q04DX002 (ip), vehicle: Klucel (hydroxypropylcellulose) (HPC)
[13] = dose: 200.0 mg/kg/injection, schedule: Q04DX002 (ip), vehicle: Klucel (hydroxypropylcellulose) (HPC)
[14] = dose: 100.0 mg/kg/injection, schedule: Q01DX009 (ip), vehicle: Klucel (hydroxypropylcellulose) (HPC)
[15] = dose: 200.0 mg/kg/injection, schedule: Q01DX009 (ip), vehicle: Klucel (hydroxypropylcellulose) (HPC)
[16] = dose: 400.0 mg/kg/injection, schedule: Q01DX009 (ip), vehicle: Klucel (hydroxypropylcellulose) (HPC)
[17] = dose: 100.0 mg/kg/injection, schedule: Q04DX003 (ip), vehicle: saline with Tween-80
[18] = dose: 200.0 mg/kg/injection, schedule: Q01DX009 (ip), vehicle: saline with Tween-80
[19] = dose: 200.0 mg/kg/injection, schedule: Q04DX003 (ip), vehicle: saline with Tween-80
[20] = dose: 400.0 mg/kg/injection, schedule: Q01DX009 (ip), vehicle: saline with Tween-80
[21] = dose: 400.0 mg/kg/injection, schedule: Q04DX003 (ip), vehicle: saline with Tween-80
[22] = dose: 100.0 mg/kg/injection, schedule: Q04DX002 (ip), vehicle: saline
[23] = dose: 200.0 mg/kg/injection, schedule: Q04DX002 (ip), vehicle: saline

Measured: T/C

COc1ccc2c(c1)CN(S(=O)(=O)c1ccc(C)cc1)CC/C2=N\O
inactive: [1] 94 % of control | [2] 94 % of control | [3] 104 % of control

ClC1(Cl)C2C=CC=CCC21 (stereo not drawn)
inactive: dose: 100.0 mg/kg/injection, schedule: Q01DX009 (ip), vehicle: other 103 % of control | dose: 100.0 mg/kg/injection, schedule: Q04DX003 (ip), vehicle: other 103 % of control | dose: 200.0 mg/kg/injection, schedule: Q01DX009 (ip), vehicle: other 97 % of control | dose: 200.0 mg/kg/injection, schedule: Q04DX003 (ip), vehicle: other 92 % of control | dose: 400.0 mg/kg/injection, schedule: Q01DX009 (ip), vehicle: other 92 % of control

CCSC1C(OC(C)=O)C(C(COC(C)=O)OC(C)=O)OC1n1cnc2c(Cl)nc(Cl)nc21 (stereo not drawn)
inactive: dose: 100.0 mg/kg/injection, schedule: Q01DX005 (ip), vehicle: saline 109 % of control | dose: 200.0 mg/kg/injection, schedule: Q01DX005 (ip), vehicle: saline 109 % of control

COc1ccc2c(c1OC)C13CCN(C)C(C2)C12C=CC(=O)C3c1c(OC)ccc(OC)c12 (stereo not drawn)
inactive: dose: 100.0 mg/kg/injection, schedule: Q01DX001 (ip), vehicle: saline 95 % of control | dose: 200.0 mg/kg/injection, schedule: Q01DX001 (ip), vehicle: saline 95 % of control | dose: 400.0 mg/kg/injection, schedule: Q01DX001 (ip), vehicle: saline 91 % of control

Cc1ccccc1C(=O)C(C#N)c1ccccc1 (stereo not drawn)
inactive: dose: 25.0 mg/kg/injection, schedule: Q01DX009 (ip), vehicle: saline with Tween-80 103 % of control and 92 % of control | dose: 25.0 mg/kg/injection, schedule: Q04DX003 (ip), vehicle: saline with Tween-80 98 % of control | dose: 50.0 mg/kg/injection, schedule: Q01DX001 (ip), vehicle: saline with Tween-80 95 % of control | [4] 96 % of control and 103 % of control | dose: 50.0 mg/kg/injection, schedule: Q04DX002 (ip), vehicle: saline with Tween-80 97 % of control | dose: 50.0 mg/kg/injection, schedule: Q04DX003 (ip), vehicle: saline with Tween-80 102 % of control | [5] 90 % of control | [6] 113 % of control and 118 % of control | [7] 93 % of control and 111 % of control and 88 % of control | [8] 90 % of control

O=C1OC2(CCN(Cc3ccccc3)CC2)C(=O)N1c1cccc(Cl)c1
inactive: [9] 92 % of control | [10] 106 % of control | [11] 97 % of control

CCCCCCCCCCCCCCCCOc1ccc(F)cc1
inactive: [12] 103 % of control | [13] 118 % of control | dose: 400.0 mg/kg/injection, schedule: Q04DX002 (ip), vehicle: Klucel (hydroxypropylcellulose) (HPC) 107 % of control

O=Cc1ccc(OS(=O)(=O)c2ccc([N+](=O)[O-])cc2)cc1
inactive: [14] 97 % of control | [15] 98 % of control | [16] 90 % of control

O=[N+]([O-])c1ccccc1NS(=O)(=O)c1ccccc1
inactive: [6] 95 % of control | [17] 93 % of control | [18] 96 % of control | [19] 97 % of control | [20] 98 % of control | [21] 97 % of control

CC(C)C1=CC23CCC4C(C)(C(=O)O)CCCC4(C)C2CC1C1C(=O)OC(=O)C13 (stereo not drawn)
inactive: dose: 25.0 mg/kg/injection, schedule: Q01DX009 (ip), vehicle: Klucel (hydroxypropylcellulose) (HPC) 106 % of control | dose: 25.0 mg/kg/injection, schedule: Q04DX003 (ip), vehicle: Klucel (hydroxypropylcellulose) (HPC) 103 % of control | dose: 50.0 mg/kg/injection, schedule: Q01DX009 (ip), vehicle: Klucel (hydroxypropylcellulose) (HPC) 102 % of control | dose: 50.0 mg/kg/injection, schedule: Q04DX003 (ip), vehicle: Klucel (hydroxypropylcellulose) (HPC) 101 % of control | [14] 102 % of control | dose: 100.0 mg/kg/injection, schedule: Q04DX003 (ip), vehicle: Klucel (hydroxypropylcellulose) (HPC) 95 % of control | [15] 91 % of control

c1ccc2c[s+]ccc2c1
inactive: [22] 90 % of control | [23] 94 % of control | dose: 400.0 mg/kg/injection, schedule: Q04DX002 (ip), vehicle: saline 103 % of control

CCOC(=O)CN1N=C([P+](c2ccccc2)(c2ccccc2)c2ccccc2)CC1(c1ccccc1)c1ccccc1
inactive: dose: 10.0 mg/kg/injection, schedule: Q01DX001 (ip), vehicle: saline 95 % of control | dose: 20.0 mg/kg/injection, schedule: Q01DX001 (ip), vehicle: saline 96 % of control | dose: 40.0 mg/kg/injection, schedule: Q01DX001 (ip), vehicle: saline 86 % of control

Cc1c(NS(=O)(=O)c2ccccc2)c(C)c(NS(=O)(=O)c2ccccc2)c(C)c1NS(=O)(=O)c1ccccc1
inactive: [4] 96 % of control | [6] 96 % of control | [18] 88 % of control

N#CC1(c2ccccc2)OC1(c1ccccc1)c1ccccc1 (stereo not drawn)
inactive: [14] 89 % of control | [12] 88 % of control | [15] 91 % of control | [13] 92 % of control | [16] 88 % of control

COc1ccc(COC(=O)Nc2cccc(Cl)c2C)cc1
inactive: [5] 90 % of control | [6] 97 % of control and 98 % of control | [7] 95 % of control and 104 % of control | [17] 93 % of control | dose: 200.0 mg/kg/injection, schedule: Q01DX001 (ip), vehicle: saline with Tween-80 92 % of control | [18] 97 % of control and 89 % of control | [8] 101 % of control and 87 % of control | [19] 93 % of control | dose: 400.0 mg/kg/injection, schedule: Q01DX001 (ip), vehicle: saline with Tween-80 87 % of control | [20] 93 % of control | dose: 400.0 mg/kg/injection, schedule: Q04DX002 (ip), vehicle: saline with Tween-80 96 % of control and 101 % of control | [21] 96 % of control

Nc1nc(N)c(C=O)c(Nc2ccc(Br)cc2)n1
inactive: dose: 50.0 mg/kg/injection, schedule: Q01DX001 (ip), vehicle: alcohol 110 % of control | dose: 100.0 mg/kg/injection, schedule: Q01DX001 (ip), vehicle: alcohol 96 % of control | dose: 200.0 mg/kg/injection, schedule: Q01DX001 (ip), vehicle: alcohol 94 % of control | dose: 400.0 mg/kg/injection, schedule: Q01DX001 (ip), vehicle: alcohol 90 % of control

CC(C)C(NC(=O)CN)C(=O)O (stereo not drawn) (H-Gly-[ξV]-OH)
inactive: dose: 50.0 mg/kg/injection, schedule: Q04DX002 (ip), vehicle: saline 107 % of control | [1] 98 % of control | [22] 110 % of control | dose: 100.0 mg/kg/injection, schedule: Q04DX003 (ip), vehicle: saline 97 % of control | [2] 111 % of control | [23] 103 % of control | dose: 200.0 mg/kg/injection, schedule: Q04DX003 (ip), vehicle: saline 124 % of control | [3] 112 % of control | dose: 400.0 mg/kg/injection, schedule: Q04DX003 (ip), vehicle: saline 97 % of control

c1ccc([S][Pb]([c]2ccccc2)([c]2ccccc2)[c]2ccccc2)cc1
inactive: dose: 8.0 mg/kg/injection, schedule: Q04DX003 (ip), vehicle: saline 111 % of control | dose: 16.0 mg/kg/injection, schedule: Q04DX003 (ip), vehicle: saline 103 % of control | dose: 32.0 mg/kg/injection, schedule: Q04DX003 (ip), vehicle: saline 122 % of control

O=C(OC1CCCC2CCCC21)c1ccc([N+](=O)[O-])cc1 (stereo not drawn)
inactive: [9] 93 % of control | [10] 95 % of control | [11] 98 % of control

CC1=COC(C)(C(=O)O)CC1 (stereo not drawn)
inactive: dose: 55.0 mg/kg/injection, schedule: Q01DX Z (ip), vehicle: methylcellulose (MC) 100 % of control | dose: 83.0 mg/kg/injection, schedule: Q01DX Z (ip), vehicle: methylcellulose (MC) 86 % of control | dose: 125.0 mg/kg/injection, schedule: Q01DX Z (ip), vehicle: methylcellulose (MC) 102 % of control
